Test results as given in patent publication US10844069B2, “Pyrrolotriazine compounds as TAM inhibitors” (Incyte Corporation, priority 2016, dated 2020).

Experiments:
Tyro3 = Tyro3 (Homo sapiens (Human), UniProt Q06418); experiment: TAM Enzymatic Assay (HTRF), Tyro3; assay type: biochemical
Experimental: (§1) The kinase assay buffer contained 50 mM HEPES, pH7.5, 10 mM MgCl2, 1 mM EGTA, 0.01% NP-40 and 2 mM DTT. 0.1 ul test compounds dissolved in DMSO were transferred from compound plates to white 384-well assay plates (Greiner […] plates). […] 4 ul enzyme solution (or assay buffer for the enzyme blank) was added to the appropriate wells in each plate, and then 4 ul/well substrate solution was added to initiate the reaction. The plate was protected from light and incubated at room temperature for 60 min. […] The plate was incubated for 1 h at room temperature, and HTRF (homogenous time resolved fluorescence) signal was measured on a PHERAstar FS plate reader (BMG labtech). Percentage of inhibition was calculated for each concentration and IC50 value was generated from curve fitting with GraphPad Prism software.

Axl = Axl (Homo sapiens (Human), UniProt P30530); experiment: TAM Enzymatic Assay (HTRF), phosphor-Axl; assay type: biochemical
Chain of Axl (P30530 26-894): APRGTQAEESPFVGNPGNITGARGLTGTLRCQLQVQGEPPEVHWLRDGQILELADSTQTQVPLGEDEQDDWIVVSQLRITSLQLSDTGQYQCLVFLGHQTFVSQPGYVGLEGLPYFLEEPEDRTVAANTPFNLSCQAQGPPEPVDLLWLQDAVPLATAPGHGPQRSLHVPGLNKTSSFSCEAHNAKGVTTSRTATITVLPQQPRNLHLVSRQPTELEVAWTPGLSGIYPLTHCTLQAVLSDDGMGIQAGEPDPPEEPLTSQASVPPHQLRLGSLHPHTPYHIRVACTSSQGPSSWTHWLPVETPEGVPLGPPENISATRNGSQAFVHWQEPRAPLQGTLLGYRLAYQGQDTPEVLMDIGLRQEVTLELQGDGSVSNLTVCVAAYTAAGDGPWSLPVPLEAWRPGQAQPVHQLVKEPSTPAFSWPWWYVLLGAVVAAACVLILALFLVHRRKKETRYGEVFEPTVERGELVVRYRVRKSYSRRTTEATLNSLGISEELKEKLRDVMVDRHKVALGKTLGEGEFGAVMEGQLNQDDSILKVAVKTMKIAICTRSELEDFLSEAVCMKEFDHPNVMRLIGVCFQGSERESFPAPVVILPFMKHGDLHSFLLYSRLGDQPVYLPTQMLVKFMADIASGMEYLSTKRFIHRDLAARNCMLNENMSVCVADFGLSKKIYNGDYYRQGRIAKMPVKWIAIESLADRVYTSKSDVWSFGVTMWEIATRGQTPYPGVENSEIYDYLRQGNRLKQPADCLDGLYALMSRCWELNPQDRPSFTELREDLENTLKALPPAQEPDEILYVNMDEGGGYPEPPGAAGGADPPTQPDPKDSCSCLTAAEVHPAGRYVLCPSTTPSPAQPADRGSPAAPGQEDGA
Experimental: Autophosphorylation of Axl was carried out by incubating the recombinant Axl protein (Life Technologies, PV4275) in buffer containing 50 mM Tris, pH7.5, 0.2 mg/ml Axl, 5 mM ATP, 20 mM MgCl2 and 2 mM DTT at room temperature for 1 hour.
as §1

Chain of Tyro3 (Q06418 41-890): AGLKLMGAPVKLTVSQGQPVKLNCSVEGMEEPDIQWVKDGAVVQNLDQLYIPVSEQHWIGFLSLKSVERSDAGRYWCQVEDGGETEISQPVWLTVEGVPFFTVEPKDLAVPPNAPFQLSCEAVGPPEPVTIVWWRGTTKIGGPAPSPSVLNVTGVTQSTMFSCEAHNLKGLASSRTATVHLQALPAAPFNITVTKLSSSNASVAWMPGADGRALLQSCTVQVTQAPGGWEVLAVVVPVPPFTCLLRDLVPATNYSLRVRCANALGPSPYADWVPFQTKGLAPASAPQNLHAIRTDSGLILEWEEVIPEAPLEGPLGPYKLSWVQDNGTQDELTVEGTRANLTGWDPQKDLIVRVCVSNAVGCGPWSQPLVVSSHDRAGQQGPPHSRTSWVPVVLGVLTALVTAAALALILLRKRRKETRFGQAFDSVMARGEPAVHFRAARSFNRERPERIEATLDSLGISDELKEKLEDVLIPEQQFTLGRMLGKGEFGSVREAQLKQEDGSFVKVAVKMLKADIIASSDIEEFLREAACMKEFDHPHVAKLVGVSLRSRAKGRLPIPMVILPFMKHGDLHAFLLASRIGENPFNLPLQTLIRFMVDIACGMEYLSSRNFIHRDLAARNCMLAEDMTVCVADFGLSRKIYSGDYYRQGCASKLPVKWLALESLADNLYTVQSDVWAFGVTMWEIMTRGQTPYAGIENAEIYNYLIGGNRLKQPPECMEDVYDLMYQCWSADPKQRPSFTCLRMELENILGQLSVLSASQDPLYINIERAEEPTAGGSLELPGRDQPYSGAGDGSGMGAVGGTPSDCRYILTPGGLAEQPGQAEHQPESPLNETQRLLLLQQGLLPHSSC

- IC50 (Tyro3): > 0.1 µM
- IC50 (Axl): < 0.005 µM
Structure (SMILES): Cc1cn(C)nc1-n1c(=O)c(C(=O)Nc2ccc(-c3cc(C4CCN(C(=O)C(C)C)CC4)n4ncnc(N)c34)cc2)cn(C(C)C)c1=O [Example 138, N-(4-(4-Amino-7-(1-isobutyrylpiperidin-4-yl)pyrrolo[2,1-f][1,2,4]triazin-5-yl)phenyl)-3-(1,4-dimethyl-1H-pyrazol-3-yl)-1-isopropyl-2,4-dioxo-1,2,3,4-tetrahydropyrimidine-5-carboxamide]
